Source: patent publication US10000454B2, “Antidiabetic tricyclic compounds” (Merck Sharp & Dohme Corp., priority 2014, dated 2018)
pEC50: −log10 of the molar value.

Legend:
[1] = biological target: T1, Human GPR40 (Homo sapiens, UniProt O14842); experiment: FLIPR assay, agonist-induced calcium mobilization; type: cell-based; set-up: expressed in transfected cells; details: GPR40/CHO NFAT BLA cells
Procedure: (§1) Human and mouse GPR40 stable cell-lines were generated in CHO cells stably expressing NFAT BLA (Beta-lactamase). A human GPR40 stable cell-line was generated in HER cells stably expressing the aequorin expressing reporter. The expression plasmids were transfected using lipofectamine (Life Technologies) following manufacturer's instructions. Stable cell-lines were generated following drug selection.
FLIPR (Fluorimetric Imaging Plate Reader, Molecular Devices) assays were performed to measure agonist-induced calcium mobilization of the stable clones. For the FLIPR assay, one day before assay, GPR40/CHO NFAT BLA cells were seeded into black-wall-clear-bottom 384-well plates (Costar) at 1.4×10e4 cells/20 μL medium/well. The cells were incubated with 20 μl/well of the assay buffer (HMS, 0.1% BSA, 20 mM HEPES, 2.5 mM probenecid, pH 7.4) containing 8 μM fluo-4, AM, 0.08% pluronic acid at room temperature for 100 minutes. Fluorescence output was measured using FLIPR. Compounds were dissolved in DMSO and diluted to desired concentrations with assay buffer. 13.3 μL/well of compound solution was added.

[2] = biological target: T1, Human GPR40; experiment: Inositol Phosphate Turnover (IP1) Assay; type: cell-based; set-up: expressed in transfected cells; host or cells: HEK cells (stably expressing the aequorin reporter); details: HEK cells stably expressing human GPR40, CisBio IP-One kit
Procedure: as §1
The assay is performed in 384-well format. HEK cells stably expressing human GPR40 are plated at 15,000 cells per well in growth medium (DMEM/10% fetal calf serum). Cell plates are then incubated 16 hours at 37 degrees in a 5% CO2 incubator.
Measurement of Inositol Phosphate Turnover (IP1) is performed using the CisBio IP-One kit (Part number 62IPAPEB). After the 16 hour incubation, the cells are washed with HEPES buffer and 10 ul of stimulation buffer (prepared as described in the kit) is added to each well. In a separate plate, compounds are diluted in DMSO (400-fold over the final concentration in the assay well) and 25 nl is acoustically transferred to the appropriate well in the assay cell plate. The plates are then incubated for 60 minutes at 37 degrees. 10 ul of detection buffer (also prepared as described in the IP-One kit) is added to each well and the plates are incubated for 60 minutes in the dark. The plates are then read in a Perkin Elmer EnVision or equivalent reader able to measure FRET. Fluorescent ratio of emission at 665 and 620 nm is then converted to IP1 concentration by back calculating from an IP1 standard curve prepared at the time of the assay.

T1 sequence (O14842 whole entry): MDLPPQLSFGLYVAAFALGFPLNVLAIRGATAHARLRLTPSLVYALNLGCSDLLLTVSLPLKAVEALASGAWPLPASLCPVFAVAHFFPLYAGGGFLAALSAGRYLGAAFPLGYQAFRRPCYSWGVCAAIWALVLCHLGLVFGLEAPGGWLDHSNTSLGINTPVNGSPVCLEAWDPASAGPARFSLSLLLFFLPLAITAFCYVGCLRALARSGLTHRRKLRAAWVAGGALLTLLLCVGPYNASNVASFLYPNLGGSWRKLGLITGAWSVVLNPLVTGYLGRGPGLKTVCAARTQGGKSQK

Row | Structure (SMILES) | pEC50 [1] | pEC50 [2]
1 | COc1ncccc1C1CCC(C)(C)c2cc(F)c(COc3cc4c(cn3)[C@H]3[C@@H](C4)[C@@H]3C(=O)O)cc21 (stereo partly drawn) [Example 27, (5aR,6S,6aS)-3-((3-fluoro-8-(2-methoxypyridin-3-yl)-5,5-dimethyl-5,6,7,8-tetrahydronaphthalen-2-yl)methoxy)-5,5a,6,6a-tetrahydrocyclopropa [4,5]cyclopenta[1,2-c]pyridine-6-carboxylic acid] | 8.14 | 7.81
2 | CC1(C)CC(c2ccc(OCCCS(C)(=O)=O)cc2C(F)(F)F)c2cc(COc3cc4c(cn3)[C@H]3[C@@H](C4)[C@@H]3C(=O)O)c(F)cc21 (stereo partly drawn) [Example 28, (6S)-3-((6-fluoro-1,1-dimethyl-3-(4-(3-(methylsulfonyl)propoxy)-2-(trifluoromethyl)phenyl)-2,3-dihydro-1H-inden-5-yl)methoxy)-5,5a,6,6a-tetrahydrocyclopropa[4,5]cyclopenta[1,2-c]pyridine-6-carboxylic acid] | 8.16 | 7.39
3 | Cc1nc(OCCC(C)(C)O)ccc1C1CCCc2ccc(COc3cc4c(cn3)[C@H]3[C@@H](C4)[C@@H]3C(=O)O)cc21 (stereo partly drawn) [Example 30, (5aR,6S,6aS)-3-((8-(6-(3-hydroxy-3-methylbutoxy)-2-methylpyridin-3-yl)-5,6,7,8-tetrahydronaphthalen-2-yl)methoxy)-5,5a,6,6a-tetrahydrocyclopropa[4,5] cyclopenta[1,2-c]pyridine-6-carboxylic acid] | 7.48 | 7.46
4 | C=C(C)CCOc1ccc(C2CCCc3ccc(COc4cc5c(cn4)[C@H]4[C@@H](C5)[C@@H]4C(=O)O)cc32)c(C)n1 (stereo partly drawn) [Example 31, (5aR,6S,6aS)-3-((8-(2-methyl-6-((3-methylbut-3-en-1-yl)oxy)pyridin-3-yl)-5,6,7,8-tetrahydronaphthalen-2-yl)methoxy)-5,5a,6,6a-tetrahydrocyclopropa[4,5] cyclopenta[1,2-c]pyridine-6-carboxylic acid] | 7.28 | 6.67
5 | CC1(C)CN(c2ccccc2C(F)(F)F)c2cc(COc3cc4c(cn3)[C@H]3[C@@H](C4)[C@@H]3C(=O)O)c(F)cc21 [Example 32, (5aR,6S,6aS)-3-((5-fluoro-3,3-dimethyl-1-(2-(trifluoromethyl)phenyl)indolin-6-yl)methoxy)-5,5a,6,6a-tetrahydrocyclopropa[4,5]cyclopenta[1,2-c]pyridine-6-carboxylic acid] | 8.05 | 8.00
6 | O=C(O)[C@H]1[C@@H]2Cc3cc(OCc4ccc5c(c4)N(c4ccccc4C(F)(F)F)CC5)ncc3[C@@H]21 [Example 33] | 7.82 | 7.58
7 | O=C(O)[C@H]1[C@@H]2Cc3cc(OCc4ccc5ccn(-c6ccccc6C(F)(F)F)c5c4)ncc3[C@@H]21 [Example 34, (5aR,6S,6aS)-3-((1-(2-(trifluoromethyl)phenyl)-1H-indol-6-yl)methoxy)-5,5a,6,6a-tetrahydrocyclo-propa[4,5]cyclopenta[1,2-c]pyridine-6-carboxylic acid] | 7.47 | 7.63
8 | O=C(O)[C@H]1[C@@H]2Cc3cc(OCc4ccc5c(c4)N(c4ccccc4)CC5)ncc3[C@@H]21 [Example 35, (5aR,6S,6aS)-3-((1-(2-phenyl)indolin-6-yl)methoxy)-5,5a,6,6a-tetrahydrocyclopropa[4,5] cyclopenta[1,2-c]pyridine-6-carboxylicacid] | 7.27 | 6.77
9 | O=C(O)[C@H]1[C@@H]2Cc3cc(OCc4ccc5c(Br)cn(-c6ccccc6C(F)(F)F)c5c4)ncc3[C@@H]21 [Example 36, (5aR,6S,6aS)-3-({3-bromo-1-[2-(trifluoromethyl)phenyl]-1H-indol-6-yl}methoxy)-5,5a,6,6a-tetrahydrocyclopropa[4,5] cyclopenta[1,2-c]pyridine-6-carboxylic acid] | 7.57 | 7.32
10 | O=C(O)[C@H]1[C@@H]2Cc3cc(OCc4ccc5c(C6CC6)cn(-c6ccccc6C(F)(F)F)c5c4)ncc3[C@@H]21 [Example 37, (5aR,6S,6aS)-3-({3-cyclopropyl-1-[2-(trifluoromethyl)phenyl]-1H-indol-6-yl}methoxy)-5,5a,6,6a-tetrahydrocyclopropa[4,5] cyclopenta[1,2-c]pyridine-6-carboxylic acid] | 7.37 | 7.04
11 | CN1C(c2ccccc2C(F)(F)F)c2cc(COc3cc4c(cn3)[C@H]3[C@@H](C4)[C@@H]3C(=O)O)ccc2C1(C)C (stereo partly drawn) [Example 38, (5aR,6S,6aS)-3-((1,1,2-trimethyl-3-(2-(trifluoromethyl)phenyl)isoindolin-5-yl)methoxy)-5,5a,6,6a-tetrahydrocyclopropa[4,5]cyclopenta[1,2-c]pyridine-6-carboxylic acid] | 8.27 | 7.93
12 | CC1(C)NC(c2ccccc2C(F)(F)F)c2cc(COc3cc4c(cn3)[C@H]3[C@@H](C4)[C@@H]3C(=O)O)ccc21 (stereo partly drawn) [Example 39, (5aR,6S,6aS)-3-((1,1-dimethyl-3-(2-(trifluoromethyl)phenyl)isoindolin-5-yl)methoxy)-5,5a,6,6a-tetrahydrocyclopropa[4,5]cyclopenta[1,2-c]pyridine-6-carboxylic acid] | 7.86 | 7.81
13 | CC1(c2ccccc2C(F)(F)F)OCc2ccc(COc3cc4c(cn3)[C@H]3[C@@H](C4)[C@@H]3C(=O)O)cc21 (stereo partly shown) [Example 40] | 7.78 | 6.37
14 | Cc1c(COc2cc3c(cn2)[C@H]2[C@@H](C3)[C@@H]2C(=O)O)ccc2c1C(c1ccccc1C(F)(F)F)CCC2 (stereo partly drawn) [Example 43, (5aR,6S,6aS)-3-((1-methyl-8-(2-(trifluoro-methyl)phenyl)-5,6,7,8-tetrahydro-naphthalen-2-yl)methoxy)-5,5a,6,6a-tetrahydrocyclopropa[4,5] cyclopenta[1,2-c]pyridine-6-carboxylic acid] | 7.41 | 7.15
15 | O=C(O)[C@H]1[C@@H]2Cc3cc(OCc4cc5c(cc4F)CCCC5c4ccccc4C(F)(F)F)ncc3[C@@H]21 (stereo partly drawn) [Example 44, (5aR,6S,6aS)-3-((3-fluoro-8-(2-(trifluoro-methyl)phenyl)-5,6,7,8-tetrahydronaphthalen-2-yl)methoxy)-5,5a,6,6a-tetrahydrocyclopropa[4,5] cyclopenta[1,2-c]pyridine-6-carboxylic acid] | 7.68 | 7.17
16 | CC1CCc2ccc(COc3cc4c(cn3)[C@H]3[C@@H](C4)[C@@H]3C(=O)O)cc2C1c1ccccc1C(F)(F)F (stereo partly drawn) [Example 46, (5aR,6S,6aS)-3-((7-methyl-8-(2-(trifluoromethyl)phenyl)-5,6,7,8-tetrahydronaphthalen-2-yl)methoxy)-5,5a,6,6a-tetrahydrocyclopropa[4,5]cyclopenta[1,2-c]pyridine-6-carboxylic acid] | 8.06 | 7.10
17 | CC1=C(c2ccccc2C(F)(F)F)c2cc(COc3cc4c(cn3)[C@H]3[C@@H](C4)[C@@H]3C(=O)O)ccc2CC1 [Example 47, (5aR,6S,6aS)-3-((7-methyl-8-(2-(trifluoromethyl)-phenyl)-5,6-dihydro-naphthalen-2-yl)methoxy)-5,5a,6,6a-tetrahydrocyclo-propa[4,5]cyclopenta[1,2-c]pyridine-6-carboxylic acid] | 7.94 | 6.63
18 | O=C(O)[C@H]1[C@@H]2Cc3cc(OCc4ccc5c(c4)C(c4ccccc4C(F)(F)F)CCO5)ncc3[C@@H]21 (stereo partly drawn) [Example 48, (5aR,6S,6aS)-3-((4-(2-(trifluoromethyl)phenyl)chroman-6-yl)methoxy)-5,5a,6,6a-tetrahydrocyclopropa[4,5]cyclopenta[1,2-c]pyridine-6-carboxylic acid] | 7.11 | 7.44
19 | O=C(O)[C@H]1[C@@H]2Cc3cc(OCc4ccc5c(c4)C(c4ccccc4C(F)(F)F)OCC5)ncc3[C@@H]21 (stereo partly drawn) [Example 50, (5aR,6S,6aS)-3-((1-(2-(trifluoromethyl)phenyl)isochroman-7-yl)methoxy)-5,5a,6,6a-tetrahydrocyclopropa[4,5]cyclopenta[1,2-c]pyridine-6-carboxylic acid] | 7.36 | 7.82
20 | CC1(C)CCN(c2ccccc2C(F)(F)F)c2cc(COc3cc4c(cn3)[C@H]3[C@@H](C4)[C@@H]3C(=O)O)c(F)cc21 [Example 53, (5aR,6S,6aS)-3-((6-fluoro-4,4-dimethyl-1-(2-(trifluoromethyl)phenyl)-1,2,3,4-tetrahydroquinolin-7-yl)methoxy)-5,5a,6,6a-tetrahydrocyclopropa[4,5]cyclopenta[1,2-c]pyridine-6-carboxylic acid] | 8.08 | 7.41
